Four compounds from publication PMC8040053 (ACS Medicinal Chemistry Letters, 2021) can be followed below.

Test [1] deals with T1, HDAC3 (Homo sapiens, UniProt O15379). Description: HDAC3 progress curve analysis / jump dilution. Type of test: biochemical. The conditions noted are these: HDAC3, linear progress curves.
Test [2] in a line: Lead profiling panel of 115 biochemical and binding assays at Eurofins Panlabs. The conditions noted are these: 115-assay panel.
Test [3] has as its target T1, HDAC3. Description: HDAC3 inhibition assay. Type of test: biochemical. The conditions noted are these: for HDAC3 LBE: HDAC3-derived ligand binding efficiency.

T1 sequence (O15379 whole entry): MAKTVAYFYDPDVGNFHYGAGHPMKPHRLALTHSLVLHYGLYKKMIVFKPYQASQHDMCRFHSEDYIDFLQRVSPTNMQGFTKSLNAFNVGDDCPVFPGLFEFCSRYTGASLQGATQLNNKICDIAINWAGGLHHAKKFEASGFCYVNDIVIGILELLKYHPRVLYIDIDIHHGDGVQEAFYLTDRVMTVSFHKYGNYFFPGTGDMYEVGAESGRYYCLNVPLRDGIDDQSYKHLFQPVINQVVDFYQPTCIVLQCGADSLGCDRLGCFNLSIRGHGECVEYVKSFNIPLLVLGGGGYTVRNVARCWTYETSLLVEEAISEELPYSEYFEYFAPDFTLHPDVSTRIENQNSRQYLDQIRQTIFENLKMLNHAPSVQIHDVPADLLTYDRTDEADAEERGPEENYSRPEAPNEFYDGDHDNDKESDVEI
T1 sequence (Q9Y618 1-899 partner limits assumed): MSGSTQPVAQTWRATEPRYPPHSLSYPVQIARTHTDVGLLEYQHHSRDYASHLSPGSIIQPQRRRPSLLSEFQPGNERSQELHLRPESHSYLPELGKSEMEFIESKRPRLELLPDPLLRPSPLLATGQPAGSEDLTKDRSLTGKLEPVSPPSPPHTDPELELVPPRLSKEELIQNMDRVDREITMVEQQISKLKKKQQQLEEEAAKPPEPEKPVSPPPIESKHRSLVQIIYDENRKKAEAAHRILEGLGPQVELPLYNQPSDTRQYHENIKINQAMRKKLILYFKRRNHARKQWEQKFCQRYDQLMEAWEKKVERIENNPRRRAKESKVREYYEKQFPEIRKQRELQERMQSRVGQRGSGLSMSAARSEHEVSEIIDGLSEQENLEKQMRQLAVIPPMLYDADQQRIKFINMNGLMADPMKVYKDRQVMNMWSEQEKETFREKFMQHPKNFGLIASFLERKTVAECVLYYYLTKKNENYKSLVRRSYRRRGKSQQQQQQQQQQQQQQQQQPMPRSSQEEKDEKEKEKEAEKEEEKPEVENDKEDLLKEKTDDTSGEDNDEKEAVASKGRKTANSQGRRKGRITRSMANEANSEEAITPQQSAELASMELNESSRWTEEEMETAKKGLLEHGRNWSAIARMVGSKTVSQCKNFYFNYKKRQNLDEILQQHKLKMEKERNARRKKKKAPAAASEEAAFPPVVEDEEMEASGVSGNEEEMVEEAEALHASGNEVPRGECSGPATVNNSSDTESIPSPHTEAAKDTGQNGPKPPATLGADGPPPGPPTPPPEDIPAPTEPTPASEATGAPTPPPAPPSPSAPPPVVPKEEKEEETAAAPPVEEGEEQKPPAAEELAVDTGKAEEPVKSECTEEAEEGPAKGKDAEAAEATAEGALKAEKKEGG

Turning to `CCCC[C@H](NC(=O)C1CN(C)C1)c1ncc(-c2cc3ccccc3nc2OC)[nH]1` [Compound 12], at HDAC3 [1], the inhibition kinetics mechanism entry is recorded as “fast-on/fast-off kinetics”.

For the compound `CCCC[C@H](NC(=O)[C@H](C)c1c(C)[nH]c2ccc(O)cc12)c1ncc(-c2cc3ccccc3nc2OC)[nH]1` [Compound 19], the “selectivity for HDAC inhibition over off-target hits” value in test [2] was 10–1000 fold. Moreover, the “HDAC3 LBE” value at HDAC3 [3] is 0.25. Moreover, the inhibition kinetics mechanism entry against HDAC3 [1] is “fast-on/fast-off kinetics”.

With `CCCC[C@H](NC(=O)[C@H](C)c1c(C)[nH]c2ccc(OC)cc12)c1ncc(-c2cc3ccccc3nc2OC)[nH]1` [Compound 20], the “HDAC3 LBE” value on HDAC3 [3] is 0.25.

Broadly, the IC50 is the concentration at which inhibition is half-maximal. Consider `CCCC[C@H](NC(=O)[C@H](CN)c1c(C)[nH]c2ccc(OC)cc12)c1ncc(-c2cc3ccccc3nc2OC)[nH]1` [Compound 21], for which the IC50 on HDAC3 [3] (read-out: HDAC3 IC50, Table 3) stood at 18 nM.
